Measurements from patent publication US10864216B2, “Phenothiazine diaminium salts and their use” (WisTa Laboratories Ltd., priority 2011, dated 2020).
Marks after values point to notes of the source that are not given here.

Columns and labels:
[1] = biological target: T1, truncated tau (amino acids 297-391) in solution binding to solid-phase bound truncated tau (residues 297-390) (Homo sapiens, UniProt P10636); assay: Solid phase assay for tau aggregation (tau-tau binding, B50); settings: concentration at which tau-tau binding is decreased by 50%; mean ± SE
T1 construct: made in house
Source text: The tau-tau aggregation assay uses purified recombinant tau fragments in a solid-phase immunoassay. Methods are described in detail in e.g. WO 96/30766. Briefly, the assay measures the binding of truncated tau (amino acids 297-391) in solution to solid-phase bound truncated tau (residues 297-390). Binding of the former is detected with the antibody mAb 423, which specifically recognises peptides containing a C-terminal Glu-391 residue. The Tau complex formed in vitro is similar to the aggregated complex that forms in Alzheimer's disease as a consequence of the stability of the pathological Tau-Tau binding interaction through a 94/95-amino acid repeat domain (residues 297-390), found in the proteolytically stable core of the paired helical filament.
The B50 value (expressed as mean±SE) is determined as the concentration of compound at which tau-tau binding is decreased by 50%.

[2] = biological target: full-length human tau protein (htau40) and truncated tau (295-390, dGA) in 3T6 mouse cells (Homo sapiens, UniProt P10636); assay: Cell-based tau aggregation assay
[3] = Solubility of LMT salts in aqueous HCl solutions at 37° C.; assay type: physicochemical; settings: lower limit complete dissolution, upper limit saturation
Experimental: Two aqueous solutions (pH 2.00 and 3.01 at 21.4° C.) were prepared by carefully adding HCl (5 M) to deionised water. In each experiment a 5 ml aliquot of one of the aforementioned solutions was heated to 37° C. […] This step was repeated until no further dissolution took place.

rats = assay: Studies on the hemopoietic system (methemoglobinemia), rat; assay type: in vivo
[4] = system: rat, stomach (non glandular); assay: Gastric irritation: 28-day rat study with MTC or LMT.2HBr; assay type: in vivo; design: key to Gastritis, grade 3 (moderate): incidence / Inflammatory cell infiltration, grade 1 (minimal): incidence / Gastritis, grade 1 (minimal): incidence / Gastritis, grade 2 (slight): incidence / Gastritis, grade 3: incidence predicted with 10 per group / Gastritis, grade 1: incidence predicted with 10 per group / Gastritis, grade 2: incidence predicted with 10 per group: “—” = finding not present; 1 = minimal; 2 = slight; 3 = moderate; 4 = moderately severe; 5 = severe; settings: 90 mg/kg/day; for Gastritis, total incidence predicted with 10 per group: number of animals of 10; for Gastritis, grade 1: incidence predicted with 10 per group / Gastritis, grade 2: incidence predicted with 10 per group / Gastritis, grade 3: incidence predicted with 10 per group: scaled from 5 to 10 examined
rat = assay: 6-month study of LMT.2HBr in the rat; assay type: in vivo; settings: high dose 45 mg MT/kg/day
Source text: The decreased neutrophils or neutropaenia observed after LMT.2HBr although reversible would make patients more susceptible to bacterial infections as their primary role is in destruction of bacteria.

female Wistar rats = assay: 14 day oral administration to rats: toxicology and neutrophil response; assay type: in vivo; settings: for Neutrophils (total neutrophils as percentage of total white cells) / Dose-related deaths / Early neutrophils (frequency of presence of immature neutrophils per animal group): 14 days oral; for Neutrophils (total neutrophils as percentage of total white cells): 95 mg MT/kg/day Days 1-10, 60 mg MT/kg/day Days 11-14; for Dose-related deaths: animal numbers per group of 8 rats; for Early neutrophils (frequency of presence of immature neutrophils per animal group): animals per group of 8
Source text: Table: Neutrophil response in rats following 14 day oral administration of different salt forms of LMT.

minipigs = assay: Studies on the hemopoietic system (methemoglobinemia), minipig; assay type: in vivo
Experimental: Studies on the hemopoietic system were performed in rat, monkey and minipig.

[5] = aqueous HCl solution pH 2.00 (21.4° C.)
[6] = aqueous HCl solution pH 3.01 (21.4° C.)
[7] = female rats, 28-day, terminal kill, 5 examined, cell = number of animals
[8] = female rats, cell = number of animals
[9] = male rats, 28-day, terminal kill, 5 examined, cell = number of animals
[10] = male rats, cell = number of animals

T1 sequence (P10636 614-708): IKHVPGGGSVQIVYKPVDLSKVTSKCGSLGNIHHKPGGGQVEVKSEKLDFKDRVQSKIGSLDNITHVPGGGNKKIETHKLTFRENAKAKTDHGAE
T1 sequence (P10636 614-707): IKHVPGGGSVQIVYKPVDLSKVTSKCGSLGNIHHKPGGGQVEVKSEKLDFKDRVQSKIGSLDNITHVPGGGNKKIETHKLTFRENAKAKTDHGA

Q: For `O=S(=O)(O)CCS(=O)(=O)O` [EDSA, ethanedisulfonic acid, reference compound], which IC50 [1] is on record?
A: > 500 µM

Q: With `CN(C)c1ccc2c(c1)Sc1cc(N(C)C)ccc1N2` [LMT.2EsOH, N,N,N′,N′-Tetramethyl-10H-phenothiazine-3,7-diaminium bis(ethanesulfonate)] as the compound, how does the “THx, therapeutic index (THx = LD50/EC50)” value ([2]; listed as LMT•2EsOH) read?
A: 100

Q: And the “EC50 (μM)” value ([2]; listed as LMT•2EsOH)?
A: 0.52 ± 0.13 (n = 3) μM

Q: And the IC50 [1]?
A: 297 ± 75.1 µM

Q: Which results are given for `CN(C)c1ccc2c(c1)Sc1cc(N(C)C)ccc1N2` [LMT.2HBr, N,N,N′,N′-tetramethyl-10H-phenothiazine-3,7-diaminium di(bromide)]?
A: Solubility g/5 ml (37° C.) [3, 5]: 4.822-5.096 g/5 ml; Solubility g/5 ml (37° C.) [3, 6]: 4.726-5.236 g/5 ml; Lowest dose at which methemoglobinemia was observed (rats): 15 mg MT/kg/day; THx, therapeutic index (THx = LD50/EC50) ([2]; listed as LMT•2HBr): 92; EC50 (μM) ([2]; listed as LMT•2HBr): 0.66 ± 0.15 (n = 8) μM; Gastritis, grade 1 (minimal): incidence [4, 7]: —; Gastritis, grade 2 (slight): incidence [4, 7]: 1; Gastritis, grade 3 (moderate): incidence [4, 7]: 1; Inflammatory cell infiltration, grade 1 (minimal): incidence [4, 7]: —; Gastritis, total incidence predicted with 10 per group ([4]; female rats): 4; Gastritis, grade 1: incidence predicted with 10 per group [4, 8]: —; Gastritis, grade 2: incidence predicted with 10 per group [4, 8]: 2; Gastritis, grade 3: incidence predicted with 10 per group [4, 8]: 2; Gastritis, grade 1 (minimal): incidence [4, 9]: 1; Gastritis, grade 2 (slight): incidence [4, 9]: —; Gastritis, grade 3 (moderate): incidence [4, 9]: 1; Gastritis, total incidence predicted with 10 per group ([4]; male rats): 4; Gastritis, grade 1: incidence predicted with 10 per group [4, 10]: 2; Gastritis, grade 2: incidence predicted with 10 per group [4, 10]: —; Gastritis, grade 3: incidence predicted with 10 per group [4, 10]: 2; Mature neutrophils and granulocytes in the bone marrow (rat): Decreased numbers of mature neutrophils and granulocytes; IC50 [1]: 472 ± 27.6 µM; Neutropaenia in prepared blood smears (mature neutrophils) (female Wistar rats; 14 days): marked depletion of mature neutrophils; Numbers of neutrophilic granulocytes in the bone marrow (female Wistar rats; 14 days): considerably greater; Treatment-related deaths (female Wistar rats; 14 days): Treatment-related deaths occurred; Neutrophils (total neutrophils as percentage of total white cells) (female Wistar rats): 3.00%*; Dose-related deaths (female Wistar rats): 2/8; Early neutrophils (frequency of presence of immature neutrophils per animal group) (female Wistar rats): 8/8; Lowest dose at which methemoglobinemia was observed (minipigs): 10 mg MT/kg/day

Q: Which “Solubility g/5 ml (37° C.)” value [3, 5] does the source give for `CN(C)c1ccc2c(c1)Sc1cc(N(C)C)ccc1N2.Cl.Cl` [LMT.2HCl, N,N,N′,N′-tetramethyl-10H-phenothiazine-3,7-diaminium dichloride] here?
A: 4.404-4.961 g/5 ml

Q: And the “Solubility g/5 ml (37° C.)” value [3, 6]?
A: 4.978-6.029 g/5 ml

Q: And the “THx, therapeutic index (THx = LD50/EC50)” value [2]?
A: 102

Q: And the IC50 [1]?
A: 361 ± 38.2 µM

Q: And the “Neutropaenia in prepared blood smears (mature neutrophils)” value (female Wistar rats; 14 days)?
A: no decrease

Q: And the “Neutrophils (total neutrophils as percentage of total white cells)” value (female Wistar rats)?
A: 19.90%

Q: And the Dose-related deaths (female Wistar rats)?
A: 0/8

Q: And the “Early neutrophils (frequency of presence of immature neutrophils per animal group)” value (female Wistar rats)?
A: 2/8

Q: Which “THx, therapeutic index (THx = LD50/EC50)” value ([2]; bis(p-toluenesulfonate)) does the source give for `CN(C)c1ccc2c(c1)Sc1cc(N(C)C)ccc1N2` [LMT.2TsOH, N,N,N′,N′-Tetramethyl-10H-phenothiazine-3,7-diaminium bis(p-toluenesulfonate)] here?
A: 140

Q: What about the IC50 [1] of the same compound?
A: 296 ± 37.9 µM

Q: With `CN(C)c1ccc2c(c1)Sc1cc(N(C)C)ccc1N2` [LMT.EDSA, N,N,N′,N′-Tetramethyl-10H-phenothiazine-3,7-diaminium ethanedisulfonate] as the compound, how does the “THx, therapeutic index (THx = LD50/EC50)” value ([2]; listed as LMT•EDSA) read?
A: 115

Q: What about the “EC50 (μM)” value ([2]; listed as LMT•EDSA) of the same compound?
A: 0.68 ± 0.32 (n = 4) μM

Q: And the IC50 [1]?
A: 400 ± 17.6 µM

Q: With `CN(C)c1ccc2c(c1)Sc1cc(N(C)C)ccc1N2` [LMT.NDSA, N,N,N′,N′-Tetramethyl-10H-phenothiazine-3,7-diaminium naphthalenedisulfonate] as the compound, how does the “THx, therapeutic index (THx = LD50/EC50)” value ([2]; listed as LMT•NDSA) read?
A: 108

Q: What about the “EC50 (μM)” value ([2]; listed as LMT•NDSA) of the same compound?
A: 0.71 ± 0.34 (n = 4) μM

Q: And the IC50 [1]?
A: 334 ± 63.2 µM

Q: With `CS(=O)(=O)O` [MSA, methansulfonic acid, reference compound] as the compound, how does the IC50 [1] read?
A: > 500 µM
